A word on the GI50: it is the concentration giving 50% growth inhibition. Low values mean more potent growth inhibition, high ones less potent growth inhibition.

This is an account of results in ChEMBL document CHEMBL1139148, “N-Phenyl-N'-(2-chloroethyl)urea analogues of combretastatin A-4: Is the N-phenyl-N'-(2-chloroethyl)urea pharmacophore mimicking the trimethoxy phenyl moiety?” (2007).

Common to all, as to type: functional
The subject of test [1] is M21. The test is described as follows: Cell cycle arrest in human M21 cells assessed as accumulation at S phase at 200 uM after 24 hrs.
Test [2] has as its system M21. The test is described as follows: Cell cycle arrest in human M21 cells assessed as accumulation at S phase at 24 uM after 24 hrs.
Test [3] relates to M21. The test is described as follows: Cell cycle arrest in human M21 cells assessed as accumulation at G1 phase at 80 uM after 24 hrs.
The next test relates to MCF7. Description: Growth inhibition of human MCF7 cells.
Test [4] has as its system M21. The test is described as follows: Cell cycle arrest in human M21 cells assessed as accumulation at S phase at 80 uM after 24 hrs.
In test [5] the test system is M21. The test is described as follows: Induction of apoptosis in human M21 cells at 24 uM after 24 hrs.
For test [6], the system named is M21. Description: Growth inhibition of human M21 cells.
In another test the test system is MDA-MB-231. Description: Growth inhibition of human MDA-MB-231 cells.
The subject of test [7] is M21. The test is described as follows: Cell cycle arrest in human M21 cells assessed as accumulation at G2/M phase at 24 uM after 24 hrs.
Test [8] has as its system M21. Description: Cell cycle arrest in human M21 cells assessed as accumulation at G2/M phase at 200 uM after 24 hrs.
The test system of test [9] is M21. Description: Cell cycle arrest in human M21 cells assessed as accumulation at G1 phase at 200 uM after 24 hrs.
In test [10] the test system is M21. Description: Cell cycle arrest in human M21 cells assessed as accumulation at G2/M phase at 80 uM after 24 hrs.
Test [11] has as its system M21. Description: Cell cycle arrest in human M21 cells assessed as accumulation at G1 phase at 24 uM after 24 hrs.
Test [12] has as its system M21. Description: Induction of apoptosis in human M21 cells at 200 uM after 24 hrs.
For test [13], the system named is M21. The test is described as follows: Induction of apoptosis in human M21 cells at 80 uM after 24 hrs.
A further test concerns HT-29. Description: Growth inhibition of human HT29 cells.
Test [14] deals with M21. Description: Induction of apoptosis in human M21 cells at 21 uM after 24 hrs.
The subject of test [15] is M21. The test is described as follows: Cell cycle arrest in human M21 cells assessed as accumulation at S phase at 6 uM after 24 hrs.
The subject of test [16] is M21. Description: Cell cycle arrest in human M21 cells assessed as accumulation at G1 phase at 53 uM after 24 hrs.
The test system of test [17] is M21. Description: Cell cycle arrest in human M21 cells assessed as accumulation at G2/M phase at 6 uM after 24 hrs.
Test [18] deals with M21. The test is described as follows: Cell cycle arrest in human M21 cells assessed as accumulation at G1 phase at 21 uM after 24 hrs.
Test [19] concerns M21. Description: Cell cycle arrest in human M21 cells assessed as accumulation at G2/M phase at 53 uM after 24 hrs.
The subject of test [20] is M21. The test is described as follows: Cell cycle arrest in human M21 cells assessed as accumulation at G2/M phase at 21 uM after 24 hrs.
For test [21], the system named is M21. The test is described as follows: Cell cycle arrest in human M21 cells assessed as accumulation at S phase at 53 uM after 24 hrs.
Test [22] concerns M21. The test is described as follows: Induction of apoptosis in human M21 cells at 6 uM after 24 hrs.
Test [23] relates to M21. Description: Cell cycle arrest in human M21 cells assessed as accumulation at S phase at 21 uM after 24 hrs.
Test [24] has as its system M21. Description: Cell cycle arrest in human M21 cells assessed as accumulation at G1 phase at 6 uM after 24 hrs.
For test [25], the system named is M21. Description: Induction of apoptosis in human M21 cells at 53 uM after 24 hrs.
Test [26] deals with M21. The test is described as follows: Cell cycle arrest in human M21 cells assessed as accumulation at S phase at 0.050 uM after 24 hrs.
In test [27] the test system is M21. Description: Induction of apoptosis in human M21 cells at 0.015 uM after 24 hrs.
Test [28] deals with M21. The test is described as follows: Induction of apoptosis in human M21 cells at 0.125 uM after 24 hrs.
Test [29] has as its system M21. Description: Cell cycle arrest in human M21 cells assessed as accumulation at G1 phase at 0.015 uM after 24 hrs.
Test [30] has as its system M21. The test is described as follows: Cell cycle arrest in human M21 cells assessed as accumulation at G2/M phase at 0.015 uM after 24 hrs.
For test [31], the system named is M21. Description: Cell cycle arrest in human M21 cells assessed as accumulation at G2/M phase at 0.125 uM after 24 hrs.
For test [32], the system named is M21. Description: Cell cycle arrest in human M21 cells assessed as accumulation at S phase at 0.015 uM after 24 hrs.
The subject of test [33] is M21. The test is described as follows: Cell cycle arrest in human M21 cells assessed as accumulation at G2/M phase at 0.050 uM after 24 hrs.
Test [34] has as its system M21. The test is described as follows: Induction of apoptosis in human M21 cells at 0.050 uM after 24 hrs.
Test [35] deals with M21. Description: Cell cycle arrest in human M21 cells assessed as accumulation at G1 phase at 0.125 uM after 24 hrs.
Test [36] relates to M21. Description: Cell cycle arrest in human M21 cells assessed as accumulation at S phase at 0.125 uM after 24 hrs.
Test [37] concerns M21. The test is described as follows: Cell cycle arrest in human M21 cells assessed as accumulation at G1 phase at 0.050 uM after 24 hrs.

Turning to `COc1ccc(/C=C/c2cccc(NC(=O)NCCCl)c2)cc1O`, the Activity is 19% in the test with M21 [1]; 16.6% with M21 [2]; 38.1% in the test on M21 [3]; 18.7% with M21 [4]; 8.3% with M21 [5]; 22.5% in the test on M21 [7]. Also, the Activity in the test with M21 [8] was 19.6%; with M21 [9], 40.3%; in the test with M21 [10] it was 21.3%; with M21 [11], 37.2%; with M21 [12] it was 4.5%; in the test on M21 [13] it was 5.3%. The 50% growth inhibitory concentration (GI50) in the test with MCF7 stood at 28.2 µM; in the test with M21 [6] it was 22.7 µM; with MDA-MB-231 it was 16.5 µM; in the test on HT-29 it was 68.2 µM.

In the case of `COc1ccc(CCc2cccc(NC(=O)NCCCl)c2)cc1O`, the Activity in the test on M21 [1] was found to be 15.7%; in the test with M21 [2] it was 20.7%; with M21 [3], 15.2%; in the test on M21 [4], 16.4%; in the test on M21 [5] it was 12.5%; in the test with M21 [7], 27.5%. For the same molecule, the Activity in the test with M21 [8] came to 42.6%; with M21 [9] it was 13.5%; in the test with M21 [10], 34.9%; in the test with M21 [11], 23.8%; in the test with M21 [12], 6.9%; with M21 [13], 18.7%. In addition, the concentration for 50% growth inhibition (GI50) is 11.6 µM in the test with MCF7, 4.7 µM in the test with M21 [6], 4.1 µM in the test with MDA-MB-231 and 9.6 µM with HT-29.

In the case of `COc1ccc(/C=C\c2cccc(NC(=O)NCCCl)c2)cc1O`, the Activity stood at 10.5% in the test on M21 [1]; 12.3% with M21 [2]; 18.4% with M21 [3]; 16.4% in the test with M21 [4]; 44.8% in the test on M21 [5]; 12.5% in the test with M21 [7]. Further, the Activity is recorded as 41.3% with M21 [8]; 14.7% in the test with M21 [9]; 35.5% in the test with M21 [10]; 22.1% in the test on M21 [11]; 21.7% in the test with M21 [12]; 15% with M21 [13]. In addition, the GI50 in the test with MCF7 is 4.5 µM; in the test on M21 [6], 4 µM; in the test on MDA-MB-231 it was 4.9 µM; in the test on HT-29 it was 9.2 µM.

For `COc1ccc(CCc2ccc(NC(=O)NCCCl)cc2)cc1O`, the Activity was 16.3% in the test on M21 [1]; 9.9% with M21 [2]; 15.5% in the test on M21 [3]; 13.4% with M21 [4]; 2.8% with M21 [5]; 30.2% with M21 [7]. In addition, the Activity was determined as 47.9% in the test with M21 [8]; 7.2% in the test with M21 [9]; 45.1% in the test on M21 [10]; 37.8% with M21 [11]; 2.6% in the test with M21 [12]; 2.3% in the test on M21 [13]. For the same molecule, the 50% growth inhibitory concentration (GI50) in the test on MCF7 was determined as 15.9 µM; in the test with M21 [6], 16.3 µM; in the test with MDA-MB-231, 11 µM; in the test on HT-29 it was 15.3 µM.

For the molecule `COc1ccc(/C=C\c2ccc(NC(=O)NCCCl)cc2)cc1O`, the Activity in the test on M21 [14] came out at 17.6%; with M21 [15] it was 15.8%; with M21 [16], 8.1%; in the test with M21 [17], 43.3%; in the test with M21 [18] it was 6.8%; in the test on M21 [19], 48%. The Activity in the test on M21 [20] is reported as 47.2%; in the test with M21 [21] it was 12.5%; in the test on M21 [22], 10.7%; in the test on M21 [23], 9.7%; with M21 [24] it was 11.4%; in the test with M21 [25] it was 9.7%. Besides, the GI50 with MCF7 came to 1.65 µM; in the test on M21 [6], 0.97 µM; in the test on MDA-MB-231, 0.86 µM; with HT-29, 2.4 µM.

Regarding `COc1ccc(/C=C/c2ccc(NC(=O)NCCCl)cc2)cc1O`, the Activity was 21.9% with M21 [1]; 12.9% in the test with M21 [2]; 38.8% with M21 [3]; 15.6% with M21 [4]; 9.9% in the test with M21 [5]; 19.5% in the test with M21 [7]. Besides, the Activity in the test on M21 [8] is 12.4%; in the test with M21 [9], 37.4%; with M21 [10] it was 21%; with M21 [11] it was 38.1%; with M21 [12], 11.9%; with M21 [13], 5.5%. Further, the concentration for 50% growth inhibition (GI50) was determined as 14 µM with MCF7, 8.38 µM with M21 [6], 17.4 µM in the test on MDA-MB-231 and 1.18 µM in the test with HT-29.

For the molecule `O=C(NCCCl)Nc1cccc(CCCCCO)c1`, the 50% growth inhibitory concentration (GI50) turned out to be 0.48 µM with MCF7, 0.27 µM in the test on M21 [6], 0.23 µM in the test with MDA-MB-231 and 0.16 µM in the test with HT-29.

With `COc1ccc(/C=C\c2cc(OC)c(OC)c(OC)c2)cc1O` [COMBRETASTATIN A4], the Activity in the test with M21 [26] is 14.6%; in the test with M21 [27] it was 10.7%; with M21 [28], 11.6%; in the test with M21 [29], 9.4%; in the test with M21 [30], 46.4%; in the test with M21 [31] it was 45.4%. Moreover, the Activity was 15% in the test on M21 [32]; 40.6% in the test on M21 [33]; 15.8% in the test with M21 [34]; 8.2% with M21 [35]; 14.7% in the test on M21 [36]; 10.1% in the test with M21 [37]. Further, the 50% growth inhibitory concentration (GI50) in the test with MCF7 worked out at 0.003 µM; in the test on M21 [6], 0.002 µM; in the test on MDA-MB-231 it was 0.002 µM; with HT-29 it was 0.089 µM.
